Where “and” joins values, the source holds several entries; their conditions need not be identical. Equal entries are not always repeated. Inconclusive results and toxic doses are left out. Rule as the data show it: active = T/C of 150% or more; inactive = T/C below 125%.
System: L1210 leukemia ip in BDF1 mice, survival T/C
Experiment: NCI In Vivo Anticancer Drug Screen. Data for tumor model L1210 Leukemia (intraperitoneal) in B6D2F1 (BDF1) mice
Settings: endpoint: mean survival time, higher = longer survival
Description: The antitumor activity of compounds was measured in mice bearing transplantable tumors. Survival or tumor size were measured and the results are expressed as the measurement made in the treated group (T) divided by the measurement made in the vehicle treated control group (C). The tumor model used in this assay is L1210 Leukemia (intraperitoneal) in B6D2F1 (BDF1) mice

[1] = dose: 100.0 mg/kg/injection, schedule: Q04DX003 (ip), vehicle: saline with Tween-80
[2] = dose: 100.0 mg/kg/injection, schedule: Q01DX001 (ip), vehicle: Klucel (hydroxypropylcellulose) (HPC)
[3] = dose: 200.0 mg/kg/injection, schedule: Q01DX001 (ip), vehicle: Klucel (hydroxypropylcellulose) (HPC)
[4] = dose: 400.0 mg/kg/injection, schedule: Q01DX001 (ip), vehicle: Klucel (hydroxypropylcellulose) (HPC)
[5] = dose: 100.0 mg/kg/injection, schedule: Q01DX001 (ip), vehicle: saline
[6] = dose: 200.0 mg/kg/injection, schedule: Q01DX001 (ip), vehicle: saline
[7] = dose: 400.0 mg/kg/injection, schedule: Q01DX001 (ip), vehicle: saline
[8] = dose: 100.0 mg/kg/injection, schedule: Q01DX009 (ip), vehicle: Klucel (hydroxypropylcellulose) (HPC)
[9] = dose: 200.0 mg/kg/injection, schedule: Q01DX009 (ip), vehicle: Klucel (hydroxypropylcellulose) (HPC)
[10] = dose: 400.0 mg/kg/injection, schedule: Q01DX009 (ip), vehicle: Klucel (hydroxypropylcellulose) (HPC)
[11] = dose: 200.0 mg/kg/injection, schedule: Q04DX003 (ip), vehicle: saline with Tween-80
[12] = dose: 100.0 mg/kg/injection, schedule: Q01DX009 (ip), vehicle: saline with Tween-80
[13] = dose: 200.0 mg/kg/injection, schedule: Q01DX009 (ip), vehicle: saline with Tween-80
[14] = dose: 400.0 mg/kg/injection, schedule: Q01DX009 (ip), vehicle: saline with Tween-80

Measured: T/C

CCCCCCCCCC(=O)N/N=C/c1cccnc1
inactive: dose: 100.0 mg/kg/injection, schedule: Q01DX009 (ip), vehicle: other 96 % of control | dose: 200.0 mg/kg/injection, schedule: Q01DX009 (ip), vehicle: other 86 % of control | dose: 400.0 mg/kg/injection, schedule: Q01DX009 (ip), vehicle: other 86 % of control

C[n+]1ccccc1/C=C/c1ccc(O)c(O)c1
inactive: dose: 75.0 mg/kg/injection, schedule: Q01DX001 (ip), vehicle: saline 96 % of control | dose: 300.0 mg/kg/injection, schedule: Q01DX001 (ip), vehicle: saline 102 % of control

CC1(C)CC(N=Cc2ccccc2O)CC(C)(C)N1O.CC1(C)CC(N=Cc2ccccc2O)CC(C)(C)N1O.[Ni]
inactive: [1] 100 % of control

O=C(O)C1C2CCCCC21 (stereo not given)
inactive: dose: 100.0 mg/kg/injection, schedule: Q01DX009 (ip), vehicle: saline 97 % of control | dose: 100.0 mg/kg/injection, schedule: Q04DX003 (ip), vehicle: saline 102 % of control | dose: 200.0 mg/kg/injection, schedule: Q01DX009 (ip), vehicle: saline 97 % of control | dose: 200.0 mg/kg/injection, schedule: Q04DX003 (ip), vehicle: saline 103 % of control | dose: 400.0 mg/kg/injection, schedule: Q01DX009 (ip), vehicle: saline 90 % of control | dose: 400.0 mg/kg/injection, schedule: Q04DX003 (ip), vehicle: saline 94 % of control

ClSSc1c2ccccc2cc2ccccc12
inactive: dose: 75.0 mg/kg/injection, schedule: Q01DX001 (ip), vehicle: carboxymethylcellulose (CMC) 91 % of control | dose: 150.0 mg/kg/injection, schedule: Q01DX001 (ip), vehicle: carboxymethylcellulose (CMC) 92 % of control | dose: 300.0 mg/kg/injection, schedule: Q01DX001 (ip), vehicle: carboxymethylcellulose (CMC) 88 % of control

Cc1ccc(S(=O)(=O)N(C)c2cc(Cl)c(C#N)c(Cl)c2)cc1
inactive: [2] 96 % of control | dose: 100.0 mg/kg/injection, schedule: Q04DX003 (ip), vehicle: Klucel (hydroxypropylcellulose) (HPC) 102 % of control | [3] 96 % of control | dose: 200.0 mg/kg/injection, schedule: Q04DX003 (ip), vehicle: Klucel (hydroxypropylcellulose) (HPC) 93 % of control and 92 % of control | [4] 89 % of control | dose: 400.0 mg/kg/injection, schedule: Q04DX003 (ip), vehicle: Klucel (hydroxypropylcellulose) (HPC) 97 % of control and 91 % of control

CSc1ccc(C(CNC(C)=O)C(C#N)C#N)cc1 (stereo not given)
inactive: [5] 101 % of control | [6] 103 % of control | [7] 89 % of control

CCN(CC)Cc1cc(Cl)cc(Cc2cc(Cl)cc(CN(CC)CC)c2O)c1O
inactive: dose: 200.0 mg/kg/injection, schedule: Q04DX003 (ip), vehicle: acetone 109 % of control | dose: 400.0 mg/kg/injection, schedule: Q04DX003 (ip), vehicle: acetone 98 % of control

Nc1nc(SC2CCCCC2)c2[nH]cnc2n1
inactive: dose: 60.0 mg/kg/injection, schedule: Q01DX Z (ip), vehicle: carboxymethylcellulose (CMC) 95 % of control | dose: 120.0 mg/kg/injection, schedule: Q01DX Z (ip), vehicle: carboxymethylcellulose (CMC) 104 % of control | dose: 240.0 mg/kg/injection, schedule: Q01DX Z (ip), vehicle: carboxymethylcellulose (CMC) 106 % of control | dose: 480.0 mg/kg/injection, schedule: Q01DX Z (ip), vehicle: carboxymethylcellulose (CMC) 112 % of control

CC/C=N\NC
inactive: dose: 5.0 mg/kg/injection, schedule: Q01DX001 (ip), vehicle: saline 111 % of control | dose: 6.6 mg/kg/injection, schedule: Q01DX015 (ip), vehicle: saline 94 % of control | dose: 10.0 mg/kg/injection, schedule: Q01DX001 (ip), vehicle: saline 103 % of control | dose: 10.0 mg/kg/injection, schedule: Q01DX015 (ip), vehicle: saline 94 % of control | dose: 15.0 mg/kg/injection, schedule: Q01DX015 (ip), vehicle: saline 100 % of control | dose: 20.0 mg/kg/injection, schedule: Q01DX001 (ip), vehicle: saline 112 % of control | dose: 22.5 mg/kg/injection, schedule: Q01DX015 (ip), vehicle: saline 95 % of control | dose: 40.0 mg/kg/injection, schedule: Q01DX001 (ip), vehicle: saline 120 % of control

CCCCCCCCCCCCCCCCCCNC(=O)Oc1ccc(Cl)c(C)c1
inactive: [8] 88 % of control | dose: 100.0 mg/kg/injection, schedule: Q04DX003 (ip), vehicle: gum acacia 88 % of control | [9] 92 % of control | dose: 200.0 mg/kg/injection, schedule: Q04DX003 (ip), vehicle: gum acacia 86 % of control | [10] 92 % of control | dose: 400.0 mg/kg/injection, schedule: Q04DX003 (ip), vehicle: gum acacia 89 % of control

CCOC(=O)c1c(N)[nH]c(SSc2[nH]c(N)c(C(=O)OCC)c2C(=O)OCC)c1C(=O)OCC
inactive: [1] 99 % of control | [11] 96 % of control | dose: 400.0 mg/kg/injection, schedule: Q04DX003 (ip), vehicle: saline with Tween-80 89 % of control

Cn1c[n+](-c2ccccc2)c([S-])n1
inactive: [5] 101 % of control | [6] 101 % of control | [7] 100 % of control

CC(C)(C)NC(=O)CCC1CC(=O)NC12CCCCC2 (stereo not given)
inactive: dose: 75.0 mg/kg/injection, schedule: Q01DX009 (ip), vehicle: Klucel (hydroxypropylcellulose) (HPC) 90 % of control | dose: 150.0 mg/kg/injection, schedule: Q01DX009 (ip), vehicle: Klucel (hydroxypropylcellulose) (HPC) 91 % of control | dose: 300.0 mg/kg/injection, schedule: Q01DX009 (ip), vehicle: Klucel (hydroxypropylcellulose) (HPC) 96 % of control

c1ccc(-c2nn(-c3ccccc3)[n+](-c3ccccc3-c3ccccc3)n2)cc1
inactive: dose: 4.0 mg/kg/injection, schedule: Q01DX015 (ip), vehicle: carboxymethylcellulose (CMC) 98 % of control | dose: 8.0 mg/kg/injection, schedule: Q01DX015 (ip), vehicle: carboxymethylcellulose (CMC) 93 % of control | dose: 16.0 mg/kg/injection, schedule: Q01DX015 (ip), vehicle: carboxymethylcellulose (CMC) 94 % of control

CC(=O)CC(C)=Nc1cccc(Cl)c1
inactive: [2] 106 % of control | [8] 92 % of control | [3] 103 % of control | [9] 108 % of control | [4] 100 % of control | [10] 94 % of control

CC(=O)Oc1ccc(/C=C/C(=O)O)cc1OC(C)=O
inactive: dose: 25.0 mg/kg/injection, schedule: Q04DX002 (ip), vehicle: saline with Tween-80 101 % of control | dose: 50.0 mg/kg/injection, schedule: Q04DX002 (ip), vehicle: saline with Tween-80 97 % of control | dose: 100.0 mg/kg/injection, schedule: Q04DX002 (ip), vehicle: saline with Tween-80 94 % of control | dose: 200.0 mg/kg/injection, schedule: Q04DX002 (ip), vehicle: saline with Tween-80 87 % of control | dose: 400.0 mg/kg/injection, schedule: Q04DX002 (ip), vehicle: saline with Tween-80 93 % of control

O=C(O)c1c[nH]n2c(=S)ncnc12
inactive: dose: 50.0 mg/kg/injection, schedule: Q01DX009 (ip), vehicle: saline with Tween-80 97 % of control | [12] 96 % of control and 103 % of control | [1] 96 % of control | [13] 102 % of control and 103 % of control | [11] 94 % of control | [14] 101 % of control

CCCCCC1OC1C/C=C\CCCCCCCC(=O)OCC(O)COC(=O)CCCCCCC/C=C\CC1OC1CCCCC (stereo not given)
inactive: [5] 97 % of control | [6] 97 % of control | [7] 95 % of control

CC(=O)OCC1CCC(NC(=O)NCCF)CC1 (stereo not given)
inactive: dose: 50.0 mg/kg/injection, schedule: Q01DX001 (ip), vehicle: saline with Tween-80 101 % of control | dose: 100.0 mg/kg/injection, schedule: Q01DX001 (ip), vehicle: saline with Tween-80 106 % of control | dose: 200.0 mg/kg/injection, schedule: Q01DX001 (ip), vehicle: saline with Tween-80 95 % of control

CCO/C(C)=N/OC(=O)c1cc(Cl)ccc1Cl
inactive: dose: 100.0 mg/kg/injection, schedule: Q04DX002 (ip), vehicle: Klucel (hydroxypropylcellulose) (HPC) 98 % of control | dose: 200.0 mg/kg/injection, schedule: Q04DX002 (ip), vehicle: Klucel (hydroxypropylcellulose) (HPC) 110 % of control | dose: 400.0 mg/kg/injection, schedule: Q04DX002 (ip), vehicle: Klucel (hydroxypropylcellulose) (HPC) 113 % of control

O=C(NNc1ccccc1)C(O)C(O)C(O)C(O)CO (stereo not given)
inactive: [12] 100 % of control | [13] 96 % of control | [14] 104 % of control

— PubChem BioAssay AID248 (DTP/NCI, 2004)
